Where a name gives a salt, the structure may show the parent alone. Read-outs that look alike come from different tables or passages of the source.
Details: human, pH 7.4

SMILES	The cumulative amount of test compounds (1 h) [mg]	The cumulative amount of test compounds (2 h) [mg]	The cumulative amount of test compounds (4 h) [mg]	The cumulative amount of test compounds (8 h) [mg]
CC(OC(=O)NCCc1ccc2c(c1)OC(=O)C(N)CC(=O)O2)OC(=O)C(C)C (stereo not drawn) [Compound-8a, 1-(((2-(4-amino-2,5-dioxo-2,3,4,5-tetrahydrobenzo[b][1,4]dioxocin-8-yl)ethyl)carbamoyl)oxy)ethyl isobutyrate hydrofluoride]	0.63	1.22	2.43	4.83
CC(OC(=O)NCCc1ccc2c(c1)OC(=O)CC(N)C(=O)O2)OC(=O)C(C)C (stereo not drawn) [Compound-8b, 1-(((2-(3-amino-2,5-dioxo-2,3,4,5-tetrahydrobenzo[b][1,4]dioxocin-8-yl)ethyl)carbamoyl)oxy)ethyl isobutyrate hydrofluoride]	0.62	1.24	2.47	4.85
CCOC(=O)NCCc1ccc(OC(=O)CNC)c(OC(=O)c2ccccc2)c1 [Compound-9b, 5-(2-((ethoxycarbonyl)amino)ethyl)-2-(2-methylamino)acetoxy)phenyl benzoate hydrochloride]	0.62	1.26	2.48	4.95
CC(C)OC(=O)[C@H](Cc1ccc2c(c1)OC(=O)CC(N)C(=O)O2)NC(=O)OC(C)OC(=O)C(C)C (stereo partly drawn) [Compound-20(a), (2S)-isopropyl 3-(3-amino-2,5-dioxo-2,3,4,5-tetrahydrobenzo[b][1,4]dioxocin-8-yl)-2-(((1-(isobutyryloxy)ethoxy)carbonyl)amino)propanoate hydrobromide]	0.42	0.88	1.75	3.49
CC(C)OC(=O)[C@H](Cc1ccc2c(c1)OC(=O)C(N)CC(=O)O2)NC(=O)OC(C)OC(=O)C(C)C (stereo partly drawn) [Compound-20(b), (2S)-isopropyl 3-(4-amino-2,5-dioxo-2,3,4,5-tetrahydrobenzo[b][1,4]dioxocin-8-yl)-2-(((1-(isobutyryloxy)ethoxy)carbonyl)amino)propanoate hydrobromide]	0.43	0.85	1.78	3.52
CNCC(=O)Oc1ccc(C[C@H](NC(=O)OC(C)OC(=O)C(C)C)C(=O)OC(C)C)cc1OC(=O)c1ccccc1 (stereo partly drawn) [Compound-21(a), 5-((2S)-2-(((1-(isobutyryloxy)ethoxy)carbonyl)amino-3-isopropoxy-3-oxopropyl)-2-(2-(methylamino)acetoxy)phenyl benzoate hydrochloride]	0.52	1.08	2.17	4.37
CNCC(=O)Oc1cc(C[C@H](NC(=O)OC(C)OC(=O)C(C)C)C(=O)OC(C)C)ccc1OC(=O)c1ccccc1 (stereo partly drawn) [Compound-21(b), 4-((2S)-2-(((1-(isobutyryloxy)ethoxy)carbonyl)amino-3-isopropoxy-3-oxopropyl)-2-(2-(methylamino)acetoxy)phenyl benzoate hydrochloride]	0.51	1.05	2.08	4.19
CCN(CC)CCOC(=O)c1ccccc1Nc1c(Cl)ccc(C)c1Cl [Compound-23, 2-(diethylamino)ethyl 2-[(2,6-dichloro-3-methylphenyl)amino]benzoate.acetate]	0.85	1.69	3.38	6.85
CCN(CC)CCOC(=O)CC1=C(C)/C(=C/c2ccc([S+](C)[O-])cc2)c2ccc(F)cc21 (stereo not drawn) [Compound-24]	0.87	1.79	3.53	7.15
CC(C(=O)OCCN(C)C)c1cccc(Oc2ccccc2)c1.Cl (stereo not drawn) [Compound-25, 2-(dimethylamino)ethyl 2-(3-phenoxyphenyl) propionate.hydrochloride]	1.15	2.31	4.58	9.22
CC(C(=O)SCCN(C)C)c1cccc(Oc2ccccc2)c1.Cl (stereo not drawn) [Compound-26]	1.17	2.33	4.65	9.31
CCN(CC)CCOC(=O)C(C)c1ccc(CC(C)C)cc1.Cl (stereo not drawn) [Compound-28, 2-(diethylamino)ethyl 2-(4-isobutylphenyl)propionate hydrochloride]	1.15	2.28	4.57	9.19

Further lines, results first:

The cumulative amount of test compounds (1 h) [mg]	The cumulative amount of test compounds (2 h) [mg]	The cumulative amount of test compounds (4 h) [mg]	The cumulative amount of test compounds (8 h) [mg]	SMILES
0.67	1.33	2.67	5.25	CNCC(=O)NCCc1ccc(OC(=O)c2ccccc2)c(OC(=O)c2ccccc2)c1.Cl [Compound-1, 4-(2-(2-(methylamino)acetamido)ethyl)-1,2,-phenylene dibenzoate hydrochloride]
0.61	1.23	2.49	5.01	Br.CNCC(=O)OC(C)OC(=O)NCCc1ccc(OC(=O)c2ccccc2)c(OC(=O)c2ccccc2)c1 (stereo not drawn) [Compound-3, 4-(6-methyl-4,8-dioxo-5,7-dioxa-2,9-diazadecan-11-yl)-1,2,-phenylene dibenzoate hydrobromide]
0.59	1.21	2.45	4.93	Cl.NC(Cc1ccccc1)C(=O)NCCc1ccc(OC(=O)c2ccccc2)c(OC(=O)c2ccccc2)c1 (stereo not drawn) [Compound-4, 4-(2-(2-amino-3-phenylpropanamido)ethyl)-1,2,-phenylene dibenzoate hydrochloride]
0.63	1.25	2.53	5.03	CCC(CC)C(=O)Oc1ccc(CCNC(=O)C2CCNCC2)cc1OC(=O)C(CC)CC.Cl [Compound-6]
0.64	1.27	2.57	5.05	CCC(CC)C(=O)Oc1ccc(CCNC(=O)OC2CCC3CCCCN3C2)cc1OC(=O)C(CC)CC (stereo not drawn) [Compound-7, 4-(2-((((-octahydro-1H-quinolizin-3-yl)oxy)carbonyl)amino)ethyl)-1,2,-phenylene bis(2-ethylbutanoate) acetate]
0.52	1.05	2.10	4.23	CCCCC(=O)Oc1ccc(C[C@H](N)C(=O)OC(C)C)cc1OC(=O)CCCC.Cl [Compound-13, (S)-4-(2-amino-3-isopropoxy-3-oxopropyl)-1,2-phenylene dipentanoate hydrochloride]
0.60	1.21	2.44	4.82	CCOC(=O)[C@@H](N)Cc1ccc(OC(C)=O)c(OC(C)=O)c1.Cl [Compound-14, (S)-4-(2-amino-3-ethoxy-3-oxopropyl)-1,2-phenylene diacetate hydrochloride]
0.56	1.13	2.23	4.49	CC(C)OC(=O)[C@H](Cc1ccc(OC(=O)c2ccccc2)c(OC(=O)c2ccccc2)c1)NC(=O)CN.Cl [Compound-16]
0.58	1.15	2.33	4.71	CCC(CC)OC(=O)[C@H](Cc1ccc(OC(=O)c2ccccc2)c(OC(=O)c2ccccc2)c1)NC(=O)C1CCCN1 (stereo partly drawn) [Compound-17, 4-((2S)-3-oxo-3-(pentan-3-yloxy)-2-(pyrrolidine-2-carboxamido)propyl)-1,2-phenylene dibenzoate hydrofluoride]
0.52	1.03	2.10	4.19	CC(C)OC(=O)[C@H](Cc1ccc(OC(=O)c2ccccc2)c(OC(=O)c2ccccc2)c1)NC(=O)C1CCNCC1 [Compound-18, (S)-4-(3-isopropoxy-3-oxo-2-(piperidine-4-carboxamido)propyl)-1,2-phenylene dibenzoate hydrochloride]
0.48	0.98	2.02	4.09	CC(C)OC(=O)[C@H](Cc1ccc(OC(=O)C(C)C)c(OC(=O)C(C)C)c1)NC(=O)C1CCN2CCCCC2C1.Cl (stereo partly drawn) [Compound-19, 4-((2S)-3-isopropoxy-3-2-(octahydro-1H-quinolizine-2-carboxamido)-3-oxopropyl)-1,2-phenylene bis(2-methylpropanoate) hydrochloride]
0.45	0.89	1.78	3.61	CC(C)OC(=O)[C@H](Cc1ccc(OC(=O)c2ccccc2)c(OC(=O)c2ccccc2)c1)NC(=O)OC1CCN2CCCCC12 (stereo partly drawn) [Compound-22, 4-((2S)-3-isopropoxy-2-((((octahydroindolizin-1-yl)oxy)carbonyl)amino)-3-oxopropyl)-1,2-phenylene dibenzoate acetate]
